Like-named read-outs stand apart in the source and are kept apart here.
How the values were obtained:
diabetic (db/db) mice = experiment: Glucose, triglyceride, hematocrit levels and body weight gain in diabetic mice; conditions: for plasma glucose normalization / plasma triglycerides normalization: db/db mice
Method: Five-week-old male diabetic (db/db) mice (Harlan Laboratories, Indianapolis, Ind.) are housed in plastic cages (n=6/cage; cage size is approximately 10×20×8″ with aspen chip bedding) with free access to water (sipper system—city tap water) and food (Purina 5008). After two weeks of acclimation, animals (7 weeks of age) are bled on day 0 at 1000-1200 h (lights on 0600 h) and assigned to treatment groups (n=5 or 6) based on starting glucose values. Compound or vehicle only treatments are administered daily by oral gavage at approximately 0730 h. Body weights are measured at the beginning (day 0) and end (day 7 or day 14) of the studies. Blood is collected in heparinized tubes from the tail of nonfasted animals two to three hours after the last dose. Hematocrit, glucose and triglycerides levels are then determined. The reported values for glucose and triglyceride levels represent the % of normalization compared to the lean littermate values set at 100% or glucose normalization calculated based on a normal glucose level of 250 mg/dl. Statistical significance between experimental groups is assessed using a two-sided student's t-test.
Plasma glucose and hematocrit levels along with body weight are measured before the study began (day 0) and at the end of the study (day 14).
Plasma glucose, triglyceride, and hematocrit levels along with body weight are measured before the study began (day 0) and at the end of the study (day 7).

[1] = molecular target: T1, PPARγ ligand binding domain / ASC-2 (Homo sapiens, UniProt P37231); experiment: Co-factor recruitment assay (mammalian-2-hybrid, CV-1 cells), ASC-2; assay type: cell-based; conditions: for EC50: read-out: ASC2 EC50; for ASC2 Eff: relative to a PPARγ full agonist
T1 construct: expressed in transfected cells; host or cells: CV-1 cells
From the text: (§1) A mammalian-2-hybrid assay system in CTF format is done in CV-1 cells. The following plasmids are used: a mammalian expression vector encoding a fusion of the GAL4 DNA binding domain with the PPARγ ligand binding domain; a mammalian expression vector encoding a fusion of the VP16 transactivation domain with the nuclear receptor interaction domain of the respective co-activators: CREB-binding protein (CBP), peroxisome proliferator-activated receptor gamma coactivator-1 (PGC-1), activating signal cointegrator-2 (ASC-2), thyroid hormone receptor-activated protein complex (TRAP220), and the peptide C33; and a reporter plasmid (multimerized GAL4 binding sites/minimal TK promoter driving a luciferase cDNA). Cells are transfected in batch format and treated with compound (full log dilution from 0.1 nM to 10 μM) or vehicle for 24 hours. Subsequently, the cells are lysed and luciferase activity is measured. Luciferase activity serves as the endpoint for interaction between co-activator and receptor. The data are presented as % efficacy relative to a PPARγ full agonist and represent means from four to six separate experiments.

PPARα [2] = molecular target: T2, PPARα (Homo sapiens, UniProt Q07869); experiment: Competitive displacement binding assay (SPA), PPARα; conditions: PPARα/RXRα
T2 construct: made in house; host or cells: baculovirus expression system
Method: (§2) Binding assays are performed using scintillation proximity assay (SPA) technology, PPAR receptors, and corresponding radiolabeled ligands. PPARα and PPARγ along with their heterodimeric partner, retinoid X receptor α, are each produced using a baculovirus expression system. Biotinylated oligonucleotides containing PPAR response elements (PPREs) are used to couple the corresponding receptor dimers to yttrium silicate streptavidin-coated SPA beads. PPARγ- and PPARα-specific ligands are labeled with tritium and used in the appropriate corresponding assays. The IC50 values (compound concentration which causes 50% inhibition) for each competing compound are calculated after deduction of non-specific binding (measured in the presence of 10 μM unlabeled ligand). Compounds are evaluated using an 11-point dose response curve with concentrations ranging from 0.169 nM to 10 μM. Reported values represent means from one to seven separate experiments.
T2 sequence (Q07869 whole entry, the tested form may be a part): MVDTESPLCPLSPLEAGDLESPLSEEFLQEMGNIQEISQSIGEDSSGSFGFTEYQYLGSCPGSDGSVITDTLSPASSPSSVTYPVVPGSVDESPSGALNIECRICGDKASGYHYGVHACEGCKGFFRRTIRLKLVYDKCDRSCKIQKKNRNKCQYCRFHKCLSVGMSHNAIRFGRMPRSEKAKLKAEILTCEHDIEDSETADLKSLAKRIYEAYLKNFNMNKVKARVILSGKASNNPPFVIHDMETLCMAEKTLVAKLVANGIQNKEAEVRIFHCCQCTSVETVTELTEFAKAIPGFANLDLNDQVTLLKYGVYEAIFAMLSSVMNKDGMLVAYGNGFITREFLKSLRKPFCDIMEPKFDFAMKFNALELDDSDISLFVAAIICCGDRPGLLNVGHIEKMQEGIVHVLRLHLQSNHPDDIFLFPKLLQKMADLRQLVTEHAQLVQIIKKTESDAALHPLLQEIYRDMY
T2 sequence (P19793 whole entry, further chain, the tested form may be a part): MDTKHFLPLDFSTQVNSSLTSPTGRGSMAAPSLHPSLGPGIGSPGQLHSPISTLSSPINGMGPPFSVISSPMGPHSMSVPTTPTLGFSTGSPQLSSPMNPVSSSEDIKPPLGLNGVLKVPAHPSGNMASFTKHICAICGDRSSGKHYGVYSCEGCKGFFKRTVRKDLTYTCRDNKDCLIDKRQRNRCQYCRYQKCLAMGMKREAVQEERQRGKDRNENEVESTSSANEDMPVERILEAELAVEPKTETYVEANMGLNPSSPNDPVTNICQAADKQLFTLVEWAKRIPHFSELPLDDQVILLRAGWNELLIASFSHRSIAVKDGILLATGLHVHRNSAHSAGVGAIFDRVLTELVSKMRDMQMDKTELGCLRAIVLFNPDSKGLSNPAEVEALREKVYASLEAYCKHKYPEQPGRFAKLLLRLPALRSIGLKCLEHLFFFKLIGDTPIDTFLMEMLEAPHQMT

[3] = molecular target: T3, PPARγ ligand binding domain / CREB-binding protein (CBP) (Homo sapiens, UniProt P37231); experiment: Co-factor recruitment assay (mammalian-2-hybrid, CV-1 cells), CBP; assay type: cell-based; conditions: for CBP Eff: relative to a PPARγ full agonist
T3 construct: expressed in transfected cells; host or cells: CV-1 cells
From the text: as §1

[4] = molecular target: T4, PPARγ ligand binding domain / TRAP220 (Homo sapiens, UniProt P37231); experiment: Co-factor recruitment assay (mammalian-2-hybrid, CV-1 cells), TRAP220; assay type: cell-based; conditions: for TRAP220 Eff: relative to a PPARγ full agonist
T4 construct: expressed in transfected cells; host or cells: CV-1 cells
From the text: as §1

[5] = molecular target: T5, PPARγ ligand binding domain / peptide C33 (Homo sapiens, UniProt P37231); experiment: Co-factor recruitment assay (mammalian-2-hybrid, CV-1 cells), peptide C33; assay type: cell-based; conditions: for C33 Eff: relative to a PPARγ full agonist
T5 construct: expressed in transfected cells; host or cells: CV-1 cells
T5 sequence (P37231 238-503 limits assumed): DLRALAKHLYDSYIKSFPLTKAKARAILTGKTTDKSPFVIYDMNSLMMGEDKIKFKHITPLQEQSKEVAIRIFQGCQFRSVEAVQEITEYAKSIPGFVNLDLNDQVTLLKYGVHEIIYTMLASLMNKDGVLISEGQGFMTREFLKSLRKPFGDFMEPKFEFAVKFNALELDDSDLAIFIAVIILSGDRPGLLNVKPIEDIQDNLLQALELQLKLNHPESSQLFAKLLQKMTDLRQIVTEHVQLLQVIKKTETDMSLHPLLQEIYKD
From the text: as §1

PPARγ [6] = molecular target: T6, PPARγ (Homo sapiens, UniProt P37231); experiment: Cotransfection (CTF) / response element assays, PPARγ in CV-1 cells; assay type: cell-based; parameters: Gla4 Eff; other: response element assay, GAL4 chimeric system; A PPARγ bacterial galactosidase (GAL4) chimeric system is also used; conditions: response element assay, GAL4 chimeric system; for EC50: read-out: Gla4 EC50
T6 sequence (P37231 238-505 limits assumed): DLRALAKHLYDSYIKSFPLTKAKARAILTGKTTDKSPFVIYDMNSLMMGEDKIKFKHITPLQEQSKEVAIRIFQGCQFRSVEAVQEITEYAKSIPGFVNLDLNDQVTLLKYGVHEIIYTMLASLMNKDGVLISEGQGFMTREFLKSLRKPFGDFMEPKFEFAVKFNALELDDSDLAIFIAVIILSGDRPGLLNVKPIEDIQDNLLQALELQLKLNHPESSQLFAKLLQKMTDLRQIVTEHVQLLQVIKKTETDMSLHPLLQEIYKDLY
From the text: (§3) PPARγ or PPARα are constitutively expressed using plasmids containing the cytomegalovirus promoter. Reporter plasmids for the PPARγ CTF assays contain PPREs from the following genes: acyl coA oxidase (AOX); apolipoprotein A1 (ApoA1); lipoprotein lipase (LPL); or enoyl-CoA hydratase/3-hydroxyacyl-CoA dehydrogenase (HD) plus the thymidine kinase (TK) promoter upstream of the luciferase reporter cDNA. A PPARγ […] galactosidase (GAL4) chimeric system is also used. For PPARα, a GAL4 chimeric system is the standard CTF assay performed. All assays are done in CV-1 cells. Compounds are tested in full log dilution, from 0.1 nM to 10 μM in duplicate. Percent efficacies are determined relative to reference molecules with the efficacy value reflecting the greatest amount of agonist activity achieved in the CTF assay for each compound. Median effective concentration (EC50) values are determined by computer fit to a concentration-response curve. An EC50 value is not calculated if the efficacy for the compound is <20%. Reported values represent means from two to nine separate experiments.

PPARγ [7] = molecular target: T6, PPARγ; experiment: as above; assay type: cell-based; parameters: rows headed: PPARγ efficacy (% efficacy compared to a PPARγ full agonist set at 100%); PPARγ or PPARα are constitutively expressed using plasmids containing the cytomegalovirus promoter; conditions: CV-1; range over CTF assays of Tables 1 and 3; read-out: PPARγ efficacy (% efficacy compared to a PPARγ full agonist set at 100%)
From the text: as §3

PPARγ [8] = molecular target: T7, PPARγ (Homo sapiens, UniProt P37231); experiment: Competitive displacement binding assay (SPA), PPARγ; conditions: PPARγ/RXRα
T7 construct: made in house; host or cells: baculovirus expression system
Method: as §2
T7 sequence (P37231 whole entry, the tested form may be a part): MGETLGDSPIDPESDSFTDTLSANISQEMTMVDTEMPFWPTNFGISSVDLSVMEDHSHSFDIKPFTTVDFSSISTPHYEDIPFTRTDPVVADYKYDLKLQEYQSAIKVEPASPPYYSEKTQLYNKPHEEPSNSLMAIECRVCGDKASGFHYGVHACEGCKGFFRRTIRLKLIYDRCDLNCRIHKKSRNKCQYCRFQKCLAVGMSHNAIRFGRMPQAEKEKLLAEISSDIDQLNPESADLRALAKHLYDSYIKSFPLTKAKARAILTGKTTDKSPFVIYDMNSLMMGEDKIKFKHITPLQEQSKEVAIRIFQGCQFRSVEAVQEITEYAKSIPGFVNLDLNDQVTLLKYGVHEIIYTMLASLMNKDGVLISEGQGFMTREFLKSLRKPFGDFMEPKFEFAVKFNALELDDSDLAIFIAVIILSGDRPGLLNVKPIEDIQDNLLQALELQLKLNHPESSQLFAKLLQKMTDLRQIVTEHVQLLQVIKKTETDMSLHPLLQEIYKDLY
T7 sequence (P19793 whole entry, further chain, the tested form may be a part): as the sequence (P19793 whole entry, further chain, the tested form may be a part) above

PPARα [9] = molecular target: T8, PPARα (Homo sapiens, UniProt Q07869); experiment: Cotransfection (CTF) assay, PPARα GAL4 chimeric system in CV-1 cells; assay type: cell-based; conditions: for Eff (α): relative to reference molecule
T8 construct: For PPARα, a GAL4 chimeric system is the standard CTF assay performed
T8 sequence (Q07869 200-468 limits assumed): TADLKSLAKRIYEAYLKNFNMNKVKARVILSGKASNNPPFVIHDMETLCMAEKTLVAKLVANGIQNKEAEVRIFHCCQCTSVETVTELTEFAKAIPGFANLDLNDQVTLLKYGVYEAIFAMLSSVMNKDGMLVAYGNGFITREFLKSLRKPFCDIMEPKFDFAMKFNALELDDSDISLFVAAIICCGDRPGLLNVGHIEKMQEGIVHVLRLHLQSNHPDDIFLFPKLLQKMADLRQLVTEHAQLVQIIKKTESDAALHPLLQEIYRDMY
From the text: as §3

PPARγ [10] = molecular target: T6, PPARγ; experiment: Cotransfection (CTF) / response element assays, PPARγ in CV-1 cells; assay type: cell-based; parameters: Eff (γ); HD Eff; other: response element assay, HD PPRE reporter; LPL Eff; other: response element assay, LPL PPRE reporter; ApoA1 Eff; other: response element assay, ApoA1; PPARγ or PPARα are constitutively expressed using plasmids containing the cytomegalovirus promoter; conditions: for Eff (γ): Table 1, relative to PPARγ full agonist set at 100%
From the text: as §3

[11] = molecular target: T9, PPARγ ligand binding domain / PGC-1 (Homo sapiens, UniProt P37231); experiment: Co-factor recruitment assay (mammalian-2-hybrid, CV-1 cells), PGC-1; assay type: cell-based; conditions: for EC50: read-out: PGC1 EC50; for PGC1 Eff: relative to a PPARγ full agonist
T9 construct: expressed in transfected cells; host or cells: CV-1 cells
T9 sequence (P37231 238-503 limits assumed): T5 sequence (P37231 238-503 limits assumed)
T9 sequence (Q9UBK2 1-798 partner): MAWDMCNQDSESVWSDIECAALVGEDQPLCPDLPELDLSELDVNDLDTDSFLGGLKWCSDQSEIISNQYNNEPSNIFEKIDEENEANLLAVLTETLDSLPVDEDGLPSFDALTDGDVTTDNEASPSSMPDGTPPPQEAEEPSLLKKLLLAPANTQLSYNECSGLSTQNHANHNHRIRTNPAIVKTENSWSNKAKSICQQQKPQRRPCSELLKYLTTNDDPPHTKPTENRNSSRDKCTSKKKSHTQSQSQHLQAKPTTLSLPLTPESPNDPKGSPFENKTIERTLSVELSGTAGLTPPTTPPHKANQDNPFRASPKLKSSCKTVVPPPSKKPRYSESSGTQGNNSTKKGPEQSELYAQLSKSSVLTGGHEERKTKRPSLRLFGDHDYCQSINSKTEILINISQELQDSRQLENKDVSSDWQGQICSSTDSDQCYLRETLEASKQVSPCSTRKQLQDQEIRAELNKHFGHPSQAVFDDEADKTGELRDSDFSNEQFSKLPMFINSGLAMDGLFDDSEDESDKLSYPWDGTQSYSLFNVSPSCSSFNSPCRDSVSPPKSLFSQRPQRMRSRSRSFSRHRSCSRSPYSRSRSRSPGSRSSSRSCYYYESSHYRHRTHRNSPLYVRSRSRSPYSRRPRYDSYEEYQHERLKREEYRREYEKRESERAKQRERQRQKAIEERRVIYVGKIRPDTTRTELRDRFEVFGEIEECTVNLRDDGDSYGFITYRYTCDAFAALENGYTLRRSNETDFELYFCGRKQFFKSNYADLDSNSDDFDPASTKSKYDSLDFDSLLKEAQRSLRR
From the text: as §1

[12] = 3 mg/kg/day oral gavage, 7 days
[13] = 10 mg/kg/day oral gavage, 7 days
[14] = 30 mg/kg/day oral gavage, 7 days
[15] = 100 mg/kg/day oral gavage, 7 days
[16] = CTF, Table 1, read-out: EC50 (γ)
[17] = response element assay, HD PPRE reporter
[18] = response element assay, HD PPRE reporter, read-out: HD EC50
[19] = response element assay, LPL PPRE reporter
[20] = response element assay, LPL PPRE reporter, read-out: LPL EC50

T1 sequence (Q14686 whole entry partner, species assumed, one chain of several, the tested form may be a part): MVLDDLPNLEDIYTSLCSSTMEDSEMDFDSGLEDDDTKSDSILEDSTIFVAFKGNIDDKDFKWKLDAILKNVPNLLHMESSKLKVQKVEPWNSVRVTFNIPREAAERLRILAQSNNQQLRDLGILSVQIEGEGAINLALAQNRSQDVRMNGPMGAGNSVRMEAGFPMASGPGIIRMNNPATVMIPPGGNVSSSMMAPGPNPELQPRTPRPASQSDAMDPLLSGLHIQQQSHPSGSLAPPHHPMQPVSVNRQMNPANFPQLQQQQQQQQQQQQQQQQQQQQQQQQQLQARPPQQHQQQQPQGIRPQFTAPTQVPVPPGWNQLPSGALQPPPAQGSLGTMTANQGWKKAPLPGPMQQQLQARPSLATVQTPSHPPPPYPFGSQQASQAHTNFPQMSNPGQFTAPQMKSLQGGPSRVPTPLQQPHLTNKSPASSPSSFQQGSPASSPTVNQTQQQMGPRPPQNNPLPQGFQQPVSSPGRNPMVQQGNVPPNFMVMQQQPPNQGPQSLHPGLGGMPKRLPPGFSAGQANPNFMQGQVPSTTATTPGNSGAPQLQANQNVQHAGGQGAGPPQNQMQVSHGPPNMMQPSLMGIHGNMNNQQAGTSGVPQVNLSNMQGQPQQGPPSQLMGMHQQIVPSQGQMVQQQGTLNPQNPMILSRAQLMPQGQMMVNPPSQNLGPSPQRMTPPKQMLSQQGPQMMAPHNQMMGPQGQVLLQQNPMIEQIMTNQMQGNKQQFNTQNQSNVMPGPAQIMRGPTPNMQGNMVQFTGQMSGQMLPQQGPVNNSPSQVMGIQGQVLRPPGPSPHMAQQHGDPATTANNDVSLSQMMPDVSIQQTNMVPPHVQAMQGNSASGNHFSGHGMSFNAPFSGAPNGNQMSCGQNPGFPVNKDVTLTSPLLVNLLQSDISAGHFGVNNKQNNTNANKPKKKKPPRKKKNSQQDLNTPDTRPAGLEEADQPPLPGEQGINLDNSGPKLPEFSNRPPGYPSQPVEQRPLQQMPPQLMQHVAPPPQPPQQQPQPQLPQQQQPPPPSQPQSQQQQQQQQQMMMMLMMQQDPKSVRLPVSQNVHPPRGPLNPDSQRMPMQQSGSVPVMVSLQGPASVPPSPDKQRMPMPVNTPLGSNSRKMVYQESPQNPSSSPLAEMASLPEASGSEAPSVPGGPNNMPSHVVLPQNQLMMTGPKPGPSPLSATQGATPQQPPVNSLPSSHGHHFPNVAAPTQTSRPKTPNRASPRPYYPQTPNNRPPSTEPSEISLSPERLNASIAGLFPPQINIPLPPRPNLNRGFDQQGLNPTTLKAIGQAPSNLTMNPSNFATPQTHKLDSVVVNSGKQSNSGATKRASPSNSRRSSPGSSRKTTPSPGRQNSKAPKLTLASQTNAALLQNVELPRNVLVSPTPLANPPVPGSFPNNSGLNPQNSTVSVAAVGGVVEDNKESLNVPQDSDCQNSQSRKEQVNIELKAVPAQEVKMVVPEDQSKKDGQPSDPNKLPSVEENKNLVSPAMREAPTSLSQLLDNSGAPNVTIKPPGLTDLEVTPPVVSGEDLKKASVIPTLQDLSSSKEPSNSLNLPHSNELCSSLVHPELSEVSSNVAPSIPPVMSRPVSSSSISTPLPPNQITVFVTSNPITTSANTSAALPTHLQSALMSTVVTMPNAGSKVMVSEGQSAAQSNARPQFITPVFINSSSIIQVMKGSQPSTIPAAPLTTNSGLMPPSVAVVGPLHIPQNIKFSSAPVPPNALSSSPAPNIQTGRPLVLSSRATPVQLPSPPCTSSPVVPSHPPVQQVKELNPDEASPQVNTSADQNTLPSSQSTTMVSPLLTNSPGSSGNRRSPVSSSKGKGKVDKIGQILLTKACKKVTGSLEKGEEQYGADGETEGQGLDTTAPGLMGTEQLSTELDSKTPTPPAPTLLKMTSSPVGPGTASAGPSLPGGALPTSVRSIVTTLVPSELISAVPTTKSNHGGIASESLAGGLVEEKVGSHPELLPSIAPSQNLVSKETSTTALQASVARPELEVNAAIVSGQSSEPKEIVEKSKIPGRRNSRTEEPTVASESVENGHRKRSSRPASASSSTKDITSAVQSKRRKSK
T4 sequence (Q15648 whole entry partner, species assumed, one chain of several, the tested form may be a part): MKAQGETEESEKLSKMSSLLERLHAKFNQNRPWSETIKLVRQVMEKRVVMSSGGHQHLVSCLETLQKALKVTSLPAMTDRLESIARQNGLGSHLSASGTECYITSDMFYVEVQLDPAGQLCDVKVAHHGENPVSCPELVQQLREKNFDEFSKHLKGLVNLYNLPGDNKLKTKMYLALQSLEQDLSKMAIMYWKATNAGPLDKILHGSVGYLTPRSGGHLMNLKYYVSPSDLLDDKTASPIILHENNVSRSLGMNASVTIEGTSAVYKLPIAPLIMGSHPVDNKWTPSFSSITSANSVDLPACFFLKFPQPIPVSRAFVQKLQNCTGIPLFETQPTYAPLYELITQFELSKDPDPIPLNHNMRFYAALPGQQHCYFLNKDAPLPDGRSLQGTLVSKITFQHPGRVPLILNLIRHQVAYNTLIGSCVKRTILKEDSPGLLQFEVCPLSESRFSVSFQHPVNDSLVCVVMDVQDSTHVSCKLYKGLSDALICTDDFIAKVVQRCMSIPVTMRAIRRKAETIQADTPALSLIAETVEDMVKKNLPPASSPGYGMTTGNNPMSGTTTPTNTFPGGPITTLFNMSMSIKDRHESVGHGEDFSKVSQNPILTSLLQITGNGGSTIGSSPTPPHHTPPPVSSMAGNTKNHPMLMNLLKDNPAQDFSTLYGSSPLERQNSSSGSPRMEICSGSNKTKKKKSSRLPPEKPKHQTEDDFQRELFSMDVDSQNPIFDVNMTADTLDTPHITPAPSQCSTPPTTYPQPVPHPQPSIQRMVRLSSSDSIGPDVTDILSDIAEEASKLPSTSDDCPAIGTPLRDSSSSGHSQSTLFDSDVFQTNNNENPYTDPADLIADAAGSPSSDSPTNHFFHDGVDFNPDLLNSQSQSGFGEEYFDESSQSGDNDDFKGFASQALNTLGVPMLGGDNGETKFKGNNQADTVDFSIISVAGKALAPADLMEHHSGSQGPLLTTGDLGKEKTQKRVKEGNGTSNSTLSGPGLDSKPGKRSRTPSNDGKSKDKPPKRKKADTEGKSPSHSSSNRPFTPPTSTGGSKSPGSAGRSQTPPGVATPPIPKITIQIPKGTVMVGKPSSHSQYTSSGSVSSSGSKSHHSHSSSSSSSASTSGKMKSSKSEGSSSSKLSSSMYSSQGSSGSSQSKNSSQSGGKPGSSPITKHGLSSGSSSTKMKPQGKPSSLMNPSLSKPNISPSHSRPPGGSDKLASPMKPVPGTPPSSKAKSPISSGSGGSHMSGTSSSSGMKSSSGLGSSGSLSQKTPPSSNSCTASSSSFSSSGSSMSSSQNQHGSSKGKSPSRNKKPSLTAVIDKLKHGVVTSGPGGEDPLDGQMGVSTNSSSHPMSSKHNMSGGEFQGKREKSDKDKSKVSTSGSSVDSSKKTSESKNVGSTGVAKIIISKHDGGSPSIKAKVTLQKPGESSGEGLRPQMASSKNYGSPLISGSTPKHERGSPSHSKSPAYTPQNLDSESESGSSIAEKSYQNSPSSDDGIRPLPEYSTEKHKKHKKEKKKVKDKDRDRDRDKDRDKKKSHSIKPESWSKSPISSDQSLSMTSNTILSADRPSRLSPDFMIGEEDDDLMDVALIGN

EC50 [1]	ASC2 Eff [1]	IC50 (PPARα [2])	EC50 [3]	CBP Eff [3]	TRAP220 Eff [4]	EC50 [5]	C33 Eff [5]	Gla4 Eff (PPARγ [6])	EC50 (PPARγ [6])	Emax (PPARγ [7])	IC50 (PPARγ [8])	EC50 (PPARα [9])	Eff (α) (PPARα [9])	Eff (γ) (PPARγ [10]; CTF)	EC50 (PPARγ [10]; [16])	HD Eff (PPARγ [10]; [17])	EC50 (PPARγ [10]; [18])	LPL Eff (PPARγ [10]; [19])	EC50 (PPARγ [10]; [20])	Compound	further results
2870 nM	33 % efficacy	360 nM	2640 nM	18 % efficacy	16 % efficacy	2890 nM	43 % efficacy	39 % efficacy	1910 nM	39 to 80%	30 nM	1810 nM	39 % efficacy	60 % efficacy	1010 nM	58 % efficacy	1040 nM	80 % efficacy	466 nM	CCOc1ccc(CCNC(=O)COc2ccc(C[C@H](OC)C(=O)O)cc2)cc1 [formula V, (S)-3-(4-{[2-(4-ethoxy-phenyl)-ethylcarbamoyl]-methoxy}-phenyl)-2-methoxy-propionic acid]	plasma glucose normalization (diabetic (db/db) mice; [12]): 61.2 % normalization; plasma triglycerides normalization (diabetic (db/db) mice; [12]): 108.1 % normalization; plasma glucose normalization (diabetic (db/db) mice; [13]): 87.5 % normalization; plasma triglycerides normalization (diabetic (db/db) mice; [13]): 108.1 % normalization; plasma glucose normalization (diabetic (db/db) mice; [14]): 105.6 % normalization; plasma triglycerides normalization (diabetic (db/db) mice; [14]): 121.1 % normalization; plasma glucose normalization (diabetic (db/db) mice; [15]): 110.3 % normalization; plasma triglycerides normalization (diabetic (db/db) mice; [15]): 130.6 % normalization; EC50 [4]: 3060 nM; ApoA1 Eff (PPARγ [10]; response element assay, ApoA1 PPRE reporter): 39 % efficacy; EC50 (PPARγ [10]; response element assay, ApoA1 PPRE reporter, read-out: ApoA1 EC50): 335 nM; EC50 [11]: 2600 nM; PGC1 Eff [11]: 24 % efficacy
1380 nM	15 % efficacy	113 nM	1920 nM	15 % efficacy	7 % efficacy	3010 nM	13 % efficacy	30 % efficacy	1980 nM	30 to 86%	52 nM	1300 nM	43 % efficacy	60 % efficacy	1890 nM	54 % efficacy	1140 nM	86 % efficacy	1420 nM	COc1ccc(CCNC(=O)COc2ccc(C[C@H](OC)C(=O)O)cc2)cc1 [formula III, (2S)-3-(4-{[2-(4-methoxy-phenyl)-ethylcarbamoyl]-methoxy}-phenyl)-2-methoxy-propionic acid]	melting point: 97 to 98 °C; plasma glucose normalization (diabetic (db/db) mice; 1 mg/kg/day oral gavage, 14 days): 42.7 % normalization; plasma glucose normalization (diabetic (db/db) mice; 3 mg/kg/day oral gavage, 14 days): 68.3 % normalization; plasma glucose normalization (diabetic (db/db) mice; 10 mg/kg/day oral gavage, 14 days): 96.1 % normalization; plasma glucose normalization (diabetic (db/db) mice; 30 mg/kg/day oral gavage, 14 days): 109.3 % normalization; dose-dependent reduction in hematocrit levels, indicative of plasma volume expansion (diabetic (db/db) mice; db/db mice, 1, 3, 10, 30 mg/kg/day oral gavage, 14 days): not seen; TRAP220 efficacy [4]: Eff < 20; EC50 [11]: 2070 nM; PGC1 Eff [11]: 24 % efficacy
